Measured values published in ChEMBL document CHEMBL6078630, “Design, synthesis, and bioactivity investigation of novel cyclic lipopeptide antibiotics targeting top-priority multidrug-resistant gram-negative bacteria” (Eur J Med Chem, 2024).
Converted amounts (≈) assume the structure as drawn. Bridge positions count the residues as written; N and C are the ends. Square brackets hold non-standard residues; d marks the D form. Peptide text beside a SMILES is read from it. * marks the point of attachment. Heptanoyl(6-Me) = CC(C)CCCCC(=O)*; Dab = NCC[C@H](N)C(=O)O; Dap = NC[C@H](N)C(=O)O

Assays:
Pseudomonas aeruginosa [1] = test: Antibacterial activity against Pseudomonas aeruginosa ATCC 27853 infected in ICR mouse model infected in ICR mouse model assessed as survival rate at 10 mg/kg, iv administered at 1 and 6 hrs post-infection and measured after 7 days relative to control; format: functional; settings: ATCC 27853, 168 h, time 7 day
Pseudomonas aeruginosa [2] = test: Potentiation of rifampicin induced antibacterial activity against Pseudomonas aeruginosa ATCC 27853 assessed as rifampicin MIC at 0.125 microg/ml incubated 24 hrs by cation adjusted Mueller-Hinton broth based method; format: functional; settings: dose 0.125 µg/ml
[3] = AUC (0 to infinity) in male Sprague-Dawley rat at 3 mg/kg, iv measured after 24 hrs by LC-MS/MS analysis; format: ADME, organism-based; settings: in vivo
[4] = Protein binding in human plasma assessed as unbound fraction at 0.2 uM incubated for 6 hrs by LC-MS/MS analysis; format: ADME, cell-free
Klebsiella pneumoniae [5] = test: Antibacterial activity against carbapenem-resistant Klebsiella pneumoniae clinical isolate ets26 assessed as inhibition of bacterial growth incubated for 24 hrs by CLSI protocol based broth microdilution method; format: functional
Escherichia coli [6] = test: Antibacterial activity against carbapenem-resistant Escherichia coli clinical isolate 231016w014 assessed as inhibition of bacterial growth incubated for 24 hrs by CLSI protocol based broth microdilution method; format: functional
Pseudomonas aeruginosa [7] = test: Antibacterial activity against carbapenem-resistant Pseudomonas aeruginosa clinical isolate ets33 assessed as inhibition of bacterial growth incubated for 24 hrs by CLSI protocol based broth microdilution method; format: functional
[8] = Volume of distribution in male Sprague-Dawley rat at 3 mg/kg, iv measured after 24 hrs by LC-MS/MS analysis; format: ADME, organism-based; settings: in vivo
Pseudomonas aeruginosa [9] = test: Antibacterial activity against carbapenem-resistant Pseudomonas aeruginosa clinical isolate 19-3 assessed as inhibition of bacterial growth incubated for 16 to 20 hrs by CLSI protocol based broth microdilution method; format: functional; settings: time 16-20 hrs
Pseudomonas aeruginosa [10] = test: Antibacterial activity against carbapenem-resistant Pseudomonas aeruginosa clinical isolate ets49 assessed as inhibition of bacterial growth incubated for 24 hrs by CLSI protocol based broth microdilution method; format: functional
Pseudomonas aeruginosa [11] = test: Potentiation of rifampicin induced antibacterial activity against Pseudomonas aeruginosa ATCC 27853 assessed as rifampicin MIC at 0.06 microg/ml incubated 24 hrs by cation adjusted Mueller-Hinton broth based method; format: functional; settings: dose 0.06 µg/ml
Pseudomonas aeruginosa [12] = test: Potentiation of rifampicin induced antibacterial activity against Pseudomonas aeruginosa ATCC 27853 assessed as rifampicin MIC at 0.25 microg/ml incubated 24 hrs by cation adjusted Mueller-Hinton broth based method; format: functional; settings: dose 0.25 µg/ml
Klebsiella pneumoniae [13] = test: Antibacterial activity against carbapenem-resistant Klebsiella pneumoniae clinical isolate KPN+19-15 assessed as inhibition of bacterial growth incubated for 16 to 20 hrs by CLSI protocol based broth microdilution method; format: functional; settings: time 16-20 hrs
Escherichia coli [14] = test: Antibacterial activity against Escherichia coli ATCC BAA-2523 infected in ICR mouse model assessed as survival rate at 4 mg/kg, iv administered at 1 and 6 hrs post-infection and measured after 7 days relative to control; format: functional; settings: ATCC BAA-2523, 168 h, time 7 day
Klebsiella pneumoniae [15] = test: Antibacterial activity against carbapenem-resistant Klebsiella pneumoniae clinical isolate ets74 assessed as inhibition of bacterial growth incubated for 24 hrs by CLSI protocol based broth microdilution method; format: functional
Lipopolysaccharide (LPS) = test: Binding affinity to Escherichia coli LPS assessed as dissociation constant by SPR analysis
Pseudomonas aeruginosa [16] = test: Antibacterial activity against carbapenem-resistant Pseudomonas aeruginosa clinical isolate ets84 assessed as inhibition of bacterial growth incubated for 24 hrs by CLSI protocol based broth microdilution method; format: functional
Klebsiella pneumoniae [17] = test: Antibacterial activity against carbapenem-resistant Klebsiella pneumoniae ATCC BAA-1705 infected in ICR mouse model assessed as survival rate at 2 mg/kg, iv administered at 1 and 6 hrs post-infection and measured after 7 days relative to control; format: functional; settings: time 7 day
Klebsiella pneumoniae [18] = test: Antibacterial activity against carbapenem-resistant Klebsiella pneumoniae clinical isolate KPN+19-15 infected in ICR mouse model administered intravenously with compound at 1 and 6 hrs post-infection and measured after 7 days; format: functional; settings: 168 h, route iv, time 7 day
Pseudomonas aeruginosa [19] = test: Potentiation of rifampicin induced antibacterial activity against Pseudomonas aeruginosa ATCC 27853 assessed as rifampicin MIC at 0.004 microg/ml incubated 24 hrs by cation adjusted Mueller-Hinton broth based method; format: functional; settings: dose 0.004 µg/ml
Pseudomonas aeruginosa [20] = test: Potentiation of rifampicin induced antibacterial activity against Pseudomonas aeruginosa ATCC 27853 assessed as rifampicin MIC at 0.016 microg/ml incubated 24 hrs by cation adjusted Mueller-Hinton broth based method; format: functional; settings: dose 0.016 µg/ml
Klebsiella pneumoniae [21] = test: Antibacterial activity against carbapenem-resistant Klebsiella pneumoniae clinical isolate ets45 assessed as inhibition of bacterial growth incubated for 24 hrs by CLSI protocol based broth microdilution method; format: functional
[22] = Nephrotoxicity against Sprague-Dawley rat assessed as increase in BUN level at 4 mg/kg, iv administered for 7 days by fully automated biochemistry analyzer XR200PLUS; format: toxicity, organism-based; settings: in vivo, 168 h, time 7 day
Escherichia coli [23] = test: Antibacterial activity against carbapenem-resistant Escherichia coli ATCC BAA-2340 assessed as inhibition of bacterial growth incubated for 16 to 20 hrs by CLSI protocol based broth microdilution method; format: functional; settings: time 16-20 hrs
Acinetobacter baumannii [24] = test: Antibacterial activity against carbapenem-sensitive Acinetobacter baumannii clinical isolate 19-1 assessed as inhibition of bacterial growth incubated for 16 to 20 hrs by CLSI protocol based broth microdilution method; format: functional; settings: time 16-20 hrs
Acinetobacter baumannii [25] = test: Antibacterial activity against carbapenem-resistant Acinetobacter baumannii NCTC13304 infected in ICR mouse model administered intravenously with compound at 1 and 6 hrs post-infection and measured after 7 days; format: functional; settings: NCTC13304, 168 h, route iv, time 7 day
Escherichia coli [26] = test: Antibacterial activity against Escherichia coli ATCC BAA-2523 assessed as inhibition of bacterial growth incubated for 16 to 20 hrs by CLSI protocol based broth microdilution method; format: functional; settings: time 16-20 hrs
[27] = C0 in male Sprague-Dawley rat at 3 mg/kg, iv measured after 24 hrs by LC-MS/MS analysis; format: ADME, organism-based; settings: in vivo
Pseudomonas aeruginosa [28] = test: Potentiation of rifampicin induced antibacterial activity against Pseudomonas aeruginosa ATCC 27853 assessed as rifampicin MIC at 0.03 microg/ml incubated 24 hrs by cation adjusted Mueller-Hinton broth based method; format: functional; settings: dose 0.03 µg/ml
Acinetobacter baumannii [29] = test: Antibacterial activity against carbapenem-resistant Acinetobacter baumannii clinical isolate ets104 assessed as inhibition of bacterial growth incubated for 24 hrs by CLSI protocol based broth microdilution method; format: functional
Klebsiella pneumoniae [30] = test: Antibacterial activity against carbapenem-resistant Klebsiella pneumoniae clinical isolate ets77 assessed as inhibition of bacterial growth incubated for 24 hrs by CLSI protocol based broth microdilution method; format: functional
Pseudomonas aeruginosa [31] = test: Antibacterial activity against carbapenem-resistant Pseudomonas aeruginosa clinical isolate ets104 assessed as inhibition of bacterial growth incubated for 24 hrs by CLSI protocol based broth microdilution method; format: functional
Pseudomonas aeruginosa [32] = test: Antibacterial activity against carbapenem-resistant Pseudomonas aeruginosa clinical isolate ets38 assessed as inhibition of bacterial growth incubated for 24 hrs by CLSI protocol based broth microdilution method; format: functional
Acinetobacter baumannii [33] = test: Antibacterial activity against carbapenem-resistant Acinetobacter baumannii clinical isolate ets30 assessed as inhibition of bacterial growth incubated for 24 hrs by CLSI protocol based broth microdilution method; format: functional

CC(C)CCCCC(=O)N[C@@H](CCN)C(=O)N[C@H](C(=O)N[C@@H](CN)C(=O)N[C@H]1CCNC(=O)[C@H]([C@@H](C)O)NC(=O)[C@H](CCN)NC(=O)[C@H](CCN)NC(=O)[C@H]([C@@H](C)O)NC(=O)[C@@H](Cc2ccccc2)NC(=O)[C@H](CCN)NC1=O)[C@@H](C)O ({Heptanoyl(6-Me)}-[Dab]T[Dap][Dab][Dab][dF]T[Dab][Dab]T; lactam 4-C)
survival at 10 mg/kg (Pseudomonas aeruginosa [1]): 100% | MIC (Pseudomonas aeruginosa [2]): ≤ 0.06 µg/mL | AUC(0-inf) [3]: 8280 ng·h/mL | fraction unbound at 6 h, 0.2 µM [4]: 0.232 | MIC (Klebsiella pneumoniae [5]): 0.5 µg/mL (≈ 0.43 µM) | MIC (Escherichia coli [6]): < 0.06 µg/mL | MIC (Pseudomonas aeruginosa [7]): 0.5 µg/mL (≈ 0.43 µM) | Vd [8]: 0.78 L/kg | MIC (Pseudomonas aeruginosa [9]): 0.125 µg/mL (≈ 0.107 µM) | MIC (Pseudomonas aeruginosa [10]): 0.06 µg/mL (≈ 0.0516 µM) | MIC (Pseudomonas aeruginosa [11]): 0.25 µg/mL | MIC (Pseudomonas aeruginosa [12]): ≤ 0.06 µg/mL | MIC (Klebsiella pneumoniae [13]): ≤ 0.03 µg/mL | survival at 4 mg/kg (Escherichia coli [14]): 100% | MIC (Klebsiella pneumoniae [15]): 0.5 µg/mL (≈ 0.43 µM) | Kd (Lipopolysaccharide (LPS)): 30 nM | MIC (Pseudomonas aeruginosa [16]): 0.5 µg/mL (≈ 0.43 µM) | Activity (Klebsiella pneumoniae [17]): 100% | ED50 (Klebsiella pneumoniae [18]): 0.38 mg/kg | MIC (Pseudomonas aeruginosa [19]): 32 µg/mL | MIC (Pseudomonas aeruginosa [20]): 32 µg/mL | MIC (Klebsiella pneumoniae [21]): 0.25 µg/mL (≈ 0.215 µM) | Activity [22]: Non-toxic | MIC (Escherichia coli [23]): ≤ 0.03 µg/mL | MIC (Acinetobacter baumannii [24]): ≤ 0.03 µg/mL | ED50 (Acinetobacter baumannii [25]): 0.83 mg/kg | MIC (Escherichia coli [26]): ≤ 0.03 µg/mL | C0 at 24 h [27]: 9810 ng/mL | MIC (Pseudomonas aeruginosa [28]): 16 µg/mL | MIC (Acinetobacter baumannii [29]): 0.06 µg/mL (≈ 0.0516 µM) | MIC (Klebsiella pneumoniae [30]): 0.5 µg/mL (≈ 0.43 µM) | MIC (Pseudomonas aeruginosa [31]): 1 µg/mL (≈ 0.86 µM) | MIC (Pseudomonas aeruginosa [32]): 1 µg/mL (≈ 0.86 µM) | MIC (Acinetobacter baumannii [33]): < 0.06 µg/mL
